# Values quoted from earlier work, collected in patent publication US20080132534A1, “Pharmaceutical composition comprising a macrolide immunomodulator” (priority 2003, published 2008).
# Test system: allogeneic kidney transplantation
# Conditions: rat, oral administration, suppression of systemic immune response
structure (smiles),measurement,value
C=CC[C@@H]1/C=C(\C)C[C@H](C)C[C@H](OC)[C@H]2O[C@@](O)(C(=O)C(=O)N3CCCC[C@H]3C(=O)O[C@H](/C(C)=C/[C@@H]3CC[C@@H](O)[C@H](OC)C3)[C@H](C)[C@@H](O)CC1=O)[C@H](C)C[C@@H]2OC [tacrolimus],minimum effective dose (MED),14 mg/kg
